Structures can show the parent of a compound that is named as a salt.
How the values were obtained:
[1] = biological target: T1, recombinant guanylate cyclase reporter cell line (Rattus norvegicus, UniProt P19686+P20595); assay: Effect on a recombinant guanylate cyclase reporter cell line; format: cell-based; conditions: recombinant guanylate cyclase reporter cell line (Wunder et al. 2005)
T1 construct: expressed in transfected cells
T1 sequence (P19686 1-690): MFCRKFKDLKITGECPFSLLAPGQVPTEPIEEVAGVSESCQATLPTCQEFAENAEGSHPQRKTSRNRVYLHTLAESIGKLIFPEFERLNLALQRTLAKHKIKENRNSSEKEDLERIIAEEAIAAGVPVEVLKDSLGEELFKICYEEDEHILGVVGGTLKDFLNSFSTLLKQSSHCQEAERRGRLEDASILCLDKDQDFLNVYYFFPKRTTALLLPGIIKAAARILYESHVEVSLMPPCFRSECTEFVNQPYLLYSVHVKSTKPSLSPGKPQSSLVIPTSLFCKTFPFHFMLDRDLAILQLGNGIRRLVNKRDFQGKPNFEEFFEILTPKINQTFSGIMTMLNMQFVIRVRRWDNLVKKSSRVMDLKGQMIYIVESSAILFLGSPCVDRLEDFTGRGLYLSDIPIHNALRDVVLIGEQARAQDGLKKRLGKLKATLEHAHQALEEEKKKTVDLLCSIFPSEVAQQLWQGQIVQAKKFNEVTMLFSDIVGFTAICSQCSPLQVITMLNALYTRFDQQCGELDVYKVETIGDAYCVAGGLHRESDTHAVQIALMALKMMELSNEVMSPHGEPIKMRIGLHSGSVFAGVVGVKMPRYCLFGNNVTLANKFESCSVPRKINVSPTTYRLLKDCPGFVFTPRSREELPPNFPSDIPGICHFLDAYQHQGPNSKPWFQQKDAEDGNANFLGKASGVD
T1 sequence (P20595 1-619): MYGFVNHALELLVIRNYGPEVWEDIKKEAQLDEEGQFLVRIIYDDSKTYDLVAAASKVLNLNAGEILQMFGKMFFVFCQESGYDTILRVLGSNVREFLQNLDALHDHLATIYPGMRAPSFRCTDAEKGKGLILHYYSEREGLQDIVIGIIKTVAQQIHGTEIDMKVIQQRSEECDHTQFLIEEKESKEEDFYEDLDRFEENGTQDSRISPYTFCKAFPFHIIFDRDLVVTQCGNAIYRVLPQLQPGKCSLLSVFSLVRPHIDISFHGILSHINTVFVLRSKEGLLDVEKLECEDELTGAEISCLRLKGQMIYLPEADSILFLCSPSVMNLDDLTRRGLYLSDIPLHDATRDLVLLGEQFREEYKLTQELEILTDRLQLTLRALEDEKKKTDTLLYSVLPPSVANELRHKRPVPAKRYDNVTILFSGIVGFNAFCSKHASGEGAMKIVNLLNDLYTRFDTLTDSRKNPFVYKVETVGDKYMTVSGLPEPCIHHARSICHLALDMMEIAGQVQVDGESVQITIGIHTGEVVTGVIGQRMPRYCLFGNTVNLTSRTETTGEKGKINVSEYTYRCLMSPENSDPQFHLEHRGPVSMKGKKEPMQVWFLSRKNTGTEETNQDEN
Protocol: B-2. Effect on a Recombinant Guanylate Cyclase Reporter Cell Line
The cellular activity of the compounds according to the invention is determined using a recombinant guanylate cyclase reporter cell line, as described in F. Wunder et al., Anal. Biochem. 339, 104-112 (2005).

aorta rings = assay: Vasorelaxant action in vitro (phenylephrine-contracted rabbit aorta rings); conditions: Oryctolagus cuniculus, phenylephrine-induced contraction, organ bath 37° C., 0.1% DMSO, read-out: IC50 (concentration needed to reduce the magnitude of the control contraction by 50%)
Protocol: B-1. Vasorelaxant Action In Vitro
Rabbits are stunned by a blow to the neck and exsanguinated. The aorta is removed, freed from adhering tissue and divided into rings of a width of 1.5 mm. The rings are placed individually under an initial tension in 5 ml organ baths with Krebs-Henseleit solution which is at 37° C., is gassed with carbogen and has the following composition (in each case mM): sodium chloride 119; potassium chloride: 4.8; calcium chloride dihydrate: 1; magnesium sulfate heptahydrate: 1.4; potassium dihydrogenphosphate: 1.2; sodium bicarbonate: 25; glucose: 10. The contractile force is determined with Statham UC2 cells, amplified and digitalized using A/D transducers (DAS 1802 HC, Keithley Instruments Munich), and recorded in parallel on linear recorders. To obtain a contraction, phenylephrine is added to the bath cumulatively in increasing concentration. After several control cycles, the substance to be investigated is added in each further run in increasing dosage in each case, and the height of the contraction achieved is compared with the height of the contraction reached in the last preceding run. This is used to calculate the concentration needed to reduce the magnitude of the control value by 50% (IC50 value). The standard administration volume is 5 μl; the DMSO content in the bath solution corresponds to 0.1%.

| MEC (minimum effective concentration) [1] [µM] | IC50 (aorta rings) [nM] | SMILES |
| --- | --- | --- |
| 0.03 | 130 | Nc1nc(N)nc(-c2nc(Cc3ccccc3F)n3ncccc23)n1 [Example 1, 6-[7-(2-Fluorobenzyl)imidazo[1,5-b]pyridazin-5-yl]-1,3,5-triazine-2,4-diamine formate] |
| 0.3 | 200 | CCOC(=O)Nc1c(N)nc(-c2nc(Cc3ccccc3F)n3ncccc23)nc1N [Example 5, Ethyl {4,6-diamino-2-[7-(2-fluorobenzyl)imidazo[1,5-b]pyridazin-5-yl]pyrimidin-5-yl}carbamate formate] |
| 0.1 | 152 | CCN(C(=O)OC)c1c(N)nc(-c2nc(Cc3ccccc3F)n3ncccc23)nc1N [Example 8, Methyl {4,6-diamino-2-[7-(2-fluorobenzyl)imidazo[1,5-b]pyridazin-5-yl]pyrimidin-5-yl}ethylcarbamate formate] |
| 0.3 | 422 | Nc1nc(-c2nc(Cc3ccccc3F)n3ncccc23)nc(N)c1NC(=O)OC1CCC1 [Example 11, Cyclobutyl {4,6-diamino-2-[7-(2-fluorobenzyl)imidazo[1,5-b]pyridazin-5-yl]pyrimidin-5-yl}carbamate formate] |
| 0.01 | 171 | COC(=O)N(Cc1ccccc1)c1c(N)nc(-c2nc(Cc3ccccc3F)n3ncccc23)nc1N [Example 15, Methyl benzyl{4,6-diamino-2-[7-(2-fluorobenzyl)imidazo[1,5-b]pyridazin-5-yl]pyrimidin-5-yl}carbamate formate] |
| 0.1 | 81 | COC(=O)N(Cc1cccc(F)c1)c1c(N)nc(-c2nc(Cc3ccccc3F)n3ncccc23)nc1N [Example 19, Methyl {4,6-diamino-2-[7-(2-fluorobenzyl)imidazo[1,5-b]pyridazin-5-yl]pyrimidin-5-yl}(3-fluorobenzyl)carbamate formate] |
